Where two headings read alike, the source gives them in different places.
What was measured:
Assay in all cases: cell-based
[1] = target: T1, M2 muscarinic receptor (Homo sapiens, UniProt P08172); conditions: for Emax: read-out: M2 Efficacy
T1 construct: expressed in transfected cells; host or cells: CHO (M2-CHO)
T1 sequence (P08172 1-466): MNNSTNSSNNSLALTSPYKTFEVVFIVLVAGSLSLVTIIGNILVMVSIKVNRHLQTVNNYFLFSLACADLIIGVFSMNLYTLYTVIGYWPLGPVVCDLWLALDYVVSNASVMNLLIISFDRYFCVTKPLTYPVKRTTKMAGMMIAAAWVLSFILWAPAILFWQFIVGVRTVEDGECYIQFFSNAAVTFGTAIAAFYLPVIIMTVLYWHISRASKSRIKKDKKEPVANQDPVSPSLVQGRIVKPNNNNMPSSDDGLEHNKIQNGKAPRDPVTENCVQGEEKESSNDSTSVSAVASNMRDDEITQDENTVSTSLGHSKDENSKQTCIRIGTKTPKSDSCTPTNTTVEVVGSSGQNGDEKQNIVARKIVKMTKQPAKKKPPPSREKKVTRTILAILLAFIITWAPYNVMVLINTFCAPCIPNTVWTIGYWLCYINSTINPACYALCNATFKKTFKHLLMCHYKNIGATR

[2] = target: T2, M3 muscarinic receptor (Homo sapiens, UniProt P20309); conditions: for Emax: read-out: M3 Efficacy
T2 construct: expressed in transfected cells; host or cells: CHO (M3-CHO)
T2 sequence (P20309 whole entry): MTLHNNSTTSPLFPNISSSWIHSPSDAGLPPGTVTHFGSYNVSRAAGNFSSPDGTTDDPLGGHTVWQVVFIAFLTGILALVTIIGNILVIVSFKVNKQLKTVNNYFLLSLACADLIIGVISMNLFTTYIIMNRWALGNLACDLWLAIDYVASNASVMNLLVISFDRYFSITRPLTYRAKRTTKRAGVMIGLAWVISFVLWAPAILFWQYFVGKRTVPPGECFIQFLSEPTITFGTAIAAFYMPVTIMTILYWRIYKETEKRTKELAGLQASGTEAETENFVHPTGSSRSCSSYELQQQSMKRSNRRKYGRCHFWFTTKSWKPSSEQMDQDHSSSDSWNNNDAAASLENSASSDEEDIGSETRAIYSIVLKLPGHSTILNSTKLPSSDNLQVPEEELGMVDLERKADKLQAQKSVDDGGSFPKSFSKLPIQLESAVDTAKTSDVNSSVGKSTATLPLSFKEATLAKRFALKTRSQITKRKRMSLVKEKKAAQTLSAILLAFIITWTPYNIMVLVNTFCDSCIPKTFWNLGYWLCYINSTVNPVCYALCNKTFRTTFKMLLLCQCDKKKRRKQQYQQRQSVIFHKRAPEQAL

[3] = target: T3, M4 muscarinic receptor (Homo sapiens, UniProt P08173); conditions: for Emax: read-out: M4 Efficacy
T3 construct: expressed in transfected cells; host or cells: CHO (M4-CHO)
T3 sequence (P08173 1-479): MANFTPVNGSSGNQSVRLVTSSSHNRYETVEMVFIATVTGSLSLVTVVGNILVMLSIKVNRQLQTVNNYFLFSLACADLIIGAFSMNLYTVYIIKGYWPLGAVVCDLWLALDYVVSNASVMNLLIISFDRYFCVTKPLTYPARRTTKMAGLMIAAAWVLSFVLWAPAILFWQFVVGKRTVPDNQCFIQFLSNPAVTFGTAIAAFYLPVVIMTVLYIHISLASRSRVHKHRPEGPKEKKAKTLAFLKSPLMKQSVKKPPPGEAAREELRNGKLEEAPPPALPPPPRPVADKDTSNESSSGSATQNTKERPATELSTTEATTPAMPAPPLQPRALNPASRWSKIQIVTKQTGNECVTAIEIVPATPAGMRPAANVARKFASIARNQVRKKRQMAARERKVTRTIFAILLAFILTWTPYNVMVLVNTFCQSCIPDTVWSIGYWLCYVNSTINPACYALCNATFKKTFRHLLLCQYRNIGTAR

[4] = target: T4, M1 muscarinic receptor (Homo sapiens, UniProt P11229); conditions: for Emax: read-out: M1 Efficacy
T4 construct: expressed in transfected cells; host or cells: CHO (M1-CHO)
T4 sequence (P11229 1-460): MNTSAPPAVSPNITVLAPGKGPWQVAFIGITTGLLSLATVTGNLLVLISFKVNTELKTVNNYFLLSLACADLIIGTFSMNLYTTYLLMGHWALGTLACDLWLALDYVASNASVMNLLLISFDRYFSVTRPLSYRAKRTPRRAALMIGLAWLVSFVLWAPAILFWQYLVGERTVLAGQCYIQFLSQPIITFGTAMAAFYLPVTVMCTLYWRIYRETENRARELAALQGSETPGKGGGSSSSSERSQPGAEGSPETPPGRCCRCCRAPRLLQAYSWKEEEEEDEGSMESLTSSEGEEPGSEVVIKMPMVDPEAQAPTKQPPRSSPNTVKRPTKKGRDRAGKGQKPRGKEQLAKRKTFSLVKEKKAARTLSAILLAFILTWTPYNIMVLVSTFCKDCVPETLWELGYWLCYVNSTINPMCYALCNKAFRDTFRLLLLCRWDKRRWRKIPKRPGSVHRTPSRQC

SMILES | EC50 [1] [µM] | Emax [1] [%] | EC50 [2] [µM] | Emax [2] [%] | EC50 [3] [µM] | Emax [3] [%] | EC50 [4] [µM] | Emax [4] [%] | EC50 ([1]; read-out: M2 Activity) [µM] | EC50 ([2]; read-out: M3 Activity) [µM] | EC50 ([3]; read-out: M4 Activity) [µM] | EC50 ([4]; read-out: M1 Activity) [µM] | M2 Efficacy [1] | M3 Efficacy [2] | M4 Efficacy [3] | M1 Efficacy [4]
CCOC(=O)N1C2CCC1CC(N1CCC(N(C)c3ccc(F)cc3)CC1)C2 (stereo not drawn) [Compound 9] | > 5 | < 25 | > 5 | < 25 | > 5 | 25 to 100 | > 5 | 25 to 100 | – | – | – | – | – | – | – | –
CCOC(=O)N1C2CCC1CC(N1CCC(N(C(C)=O)C3CCCC3)CC1)C2 (stereo not drawn) [Compound 15] | < 2 | 25 to 100 | 2 to 5 | 25 to 100 | < 2 | 25 to 100 | < 2 | 25 to 100 | – | – | – | – | – | – | – | –
CCCN(C1CCN(C2CC3CCC(C2)N3C(=O)OCC)CC1)S(=O)(=O)c1ccc(C(F)(F)F)cc1 (stereo not drawn) [Compound 19] | > 5 | < 25 | > 5 | < 25 | > 5 | < 25 | > 5 | < 25 | – | – | – | – | – | – | – | –
CCOC(=O)N1C2CCC1CC(N1CCC(N(CC(=O)CC)c3ccc(F)cc3)CC1)C2 (stereo not drawn) [Compound 20] | > 5 | < 25 | > 5 | < 25 | > 5 | < 25 | < 2 | 25 to 100 | – | – | – | – | – | – | – | –
CCOC(=O)N1C2CCC1CC(N1CCC(N(CC(=O)CC)c3ccc(F)cc3)CC1)C2 (stereo not drawn) [Compound 25] | – | – | – | – | – | – | – | – | > 5 | > 5 | > 5 | < 2 | – | – | – | –
CCOC(=O)N1C2CCC1CC(N1CCC(N(C)c3ccccc3)CC1)C2 (stereo not drawn) [Compound 27] | > 5 | < 25 | > 5 | < 25 | > 5 | < 25 | < 2 | 25 to 100 | – | – | – | – | – | – | – | –
CCOC(=O)N1C2CCC1CC(N1CCC(N(CC(C)C)S(=O)(=O)c3ccc(C(F)(F)F)cc3)CC1)C2 (stereo not drawn) [Compound 28] | > 5 | < 25 | > 5 | < 25 | > 5 | < 25 | > 5 | < 25 | – | – | – | – | – | – | – | –
CCOC(=O)N1C2CCC1CC(N1CCC(N(Cc3ccccc3)C(C)=O)CC1)C2 (stereo not drawn) [Compound 35] | > 5 | 25 to 100 | > 5 | 25 to 100 | 2 to 5 | 25 to 100 | < 2 | 25 to 100 | – | – | – | – | – | – | – | –
CCOC(=O)N1C2CCC1CC(N1CCC(N(CC)c3ccccc3)CC1)C2 (stereo not drawn) [Compound 37, 3-[4-(ethyl-phenyl-amino)-piperidin-1-yl]-8-azabicyclo[3.2.1]octane-8-carboxylic acid ethyl ester] | > 5 | < 25 | > 5 | < 25 | < 2 | < 25 | < 2 | 25 to 100 | – | – | – | – | – | – | – | –
CCOC(=O)N1C2CCC1CC(N1CCC(N(C(C)=O)C(C)C)CC1)C2 (stereo not drawn) [Compound 60] | > 5 | < 25 | > 5 | < 25 | > 5 | < 25 | 2 to 5 | 25 to 100 | – | – | – | – | – | – | – | –
CCOC(=O)N1C2CCC1CC(N1CCC(N(C(C)=O)C3CCCCC3)CC1)C2 (stereo not drawn) [Compound 63] | 2 to 5 | < 25 | 2 to 5 | 25 to 100 | < 2 | 25 to 100 | < 2 | 25 to 100 | – | – | – | – | – | – | – | –
CCOC(=O)N1C2CCC1CC(N1CCC(Nc3ccc(F)cc3)CC1)C2 (stereo not drawn) [Compound 64, 3-[4-(4-Fluoro-phenylamino)-piperidin-1-yl]-8-aza-bicyclo[3.2.1]octane-8-carboxylic acid ethyl ester] | > 5 | < 25 | > 5 | < 25 | > 5 | < 25 | 2 to 5 | 25 to 100 | – | – | – | – | – | – | – | –
CCOC(=O)N1C2CCC1CC(N1CCC(N(c3ccc(F)cc3)S(C)(=O)=O)CC1)C2 (stereo not drawn) [Compound 71, 3-{4-[(4-Fluoro-phenyl)-methanesulfonyl-amino]-piperidin-1-yl}-8-aza-bicyclo[3.2.1]octane-8-carboxylic acid ethyl ester] | > 5 | < 25 | > 5 | 25 to 100 | 2 to 5 | 25 to 100 | < 2 | 25 to 100 | – | – | – | – | – | – | – | –
CCOC(=O)N1C2CCC1CC(N1CCC3(CCC(=O)N3c3ccccc3)CC1)C2 (stereo not drawn) [Compound 88, Ethyl 3-(2-oxo-1-phenyl-1,8-diazaspiro[4.5]decan-8-yl)-8-azabicyclo[3.2.1]octane-8-carboxylate] | < 2 | – | > 5 | – | < 2 | – | < 2 | – | – | – | – | – | ++ (key: +++: efficacy was calculated to be greater than 100%; ++: efficacy was calculated to be from 100% to 25%; +: efficacy was calculated to be less than 25%; −: no data was available) | + (key: +++: efficacy was calculated to be greater than 100%; ++: efficacy was calculated to be from 100% to 25%; +: efficacy was calculated to be less than 25%; −: no data was available) | ++ (key: +++: efficacy was calculated to be greater than 100%; ++: efficacy was calculated to be from 100% to 25%; +: efficacy was calculated to be less than 25%; −: no data was available) | ++ (key: +++: efficacy was calculated to be greater than 100%; ++: efficacy was calculated to be from 100% to 25%; +: efficacy was calculated to be less than 25%; −: no data was available)
